This is an account of results in ChEMBL document CHEMBL1151939, “Potential scorpionate antibiotics: targeted hydrolysis of lipid II containing model membranes by vancomycin-TACzyme conjugates and modulation of their antibacterial activity by Zn-ions” (2009).

Assay type in all cases: functional
Assay [1] deals with Enterococcus. The experiment in a line: Antimicrobial activity against vancomycin-susceptible Enterococcus 15A797 by broth microdilution method in presence of ZnSo4 in medium. A general note: Dilution methods test growth across graded concentrations, often in twofold steps.
The test system of assay [2] is Enterococcus. The experiment in a line: Antimicrobial activity against vancomycin-susceptible Enterococcus 15A797 by broth microdilution method.
Assay [3] relates to Enterococcus. The assay is described as follows: Antimicrobial activity against vancomycin-resistant Enterococcus 15A799 by broth microdilution method.
Assay [4] has as its system Enterococcus. The experiment in a line: Antimicrobial activity against vancomycin-resistant Enterococcus 15A799 by broth microdilution method in presence of ZnSo4 in medium.

Converted amounts (≈) assume the structure as drawn. The source made the active and inactive calls. The calls are words filed in the database; no cut-off is given here.

Take `CN[C@H](CC(C)C)C(=O)N[C@H]1C(=O)N[C@@H](CC(N)=O)C(=O)N[C@H]2C(=O)N[C@H]3C(=O)N[C@H](C(=O)N[C@H](C(=O)NCCCOCCOCCOCCNC(=O)c4cc(OCCNC(=O)c5cc(OCc6cn(CCCNC(=O)CC[C@H](NC(=O)c7cc8cc(c7)CN(C(=O)[C@@H](Cc7c[nH]cn7)NC(C)=O)CCCN(C(=O)[C@H](Cc7c[nH]cn7)NC(C)=O)CCCN(C(=O)[C@H](Cc7c[nH]cn7)NC(C)=O)C8)C(N)=O)nn6)cc(OCc6cn(CCCNC(=O)CC[C@H](NC(=O)c7cc8cc(c7)CN(C(=O)[C@@H](Cc7c[nH]cn7)NC(C)=O)CCCN(C(=O)[C@H](Cc7c[nH]cn7)NC(C)=O)CCCN(C(=O)[C@H](Cc7c[nH]cn7)NC(C)=O)C8)C(N)=O)nn6)c5)cc(OCCNC(=O)c5cc(OCc6cn(CCCNC(=O)CC[C@H](NC(=O)c7cc8cc(c7)CN(C(=O)[C@@H](Cc7c[nH]cn7)NC(C)=O)CCCN(C(=O)[C@H](Cc7c[nH]cn7)NC(C)=O)CCCN(C(=O)[C@H](Cc7c[nH]cn7)NC(C)=O)C8)C(N)=O)nn6)cc(OCc6cn(CCCNC(=O)CC[C@H](NC(=O)c7cc8cc(c7)CN(C(=O)[C@@H](Cc7c[nH]cn7)NC(C)=O)CCCN(C(=O)[C@H](Cc7c[nH]cn7)NC(C)=O)CCCN(C(=O)[C@H](Cc7c[nH]cn7)NC(C)=O)C8)C(N)=O)nn6)c5)c4)c4cc(O)cc(O)c4-c4cc3ccc4O)[C@H](O)c3ccc(c(Cl)c3)Oc3cc2cc(c3O[C@@H]2O[C@H](CO)[C@@H](O)[C@H](O)[C@H]2O[C@H]2C[C@](C)(N)[C@H](O)[C@H](C)O2)Oc2ccc(cc2Cl)[C@H]1O`: the figures for the MIC in assay [1] and in assay [2] were 5 µM and 40 µM (≈ 255 µg/mL), respectively. Besides, the MIC result in assay [3] and in assay [4] was “inactive” throughout.
Regarding `CC(=O)N[C@@H](Cc1c[nH]cn1)C(=O)N1CCCN(C(=O)[C@H](Cc2c[nH]cn2)NC(C)=O)Cc2cc(cc(C(=O)N[C@@H](CCC(=O)NCCCN=[N+]=[N-])C(N)=O)c2)CN(C(=O)[C@@H](Cc2c[nH]cn2)NC(C)=O)CCC1`, the MIC entry in assay [1] and in assay [4] was “inactive” throughout.
For `CN[C@H](CC(C)C)C(=O)N[C@H]1C(=O)N[C@@H](CC(N)=O)C(=O)N[C@H]2C(=O)N[C@H]3C(=O)N[C@H](C(=O)N[C@H](C(=O)O)c4cc(O)cc(O)c4-c4cc3ccc4O)[C@H](O)c3ccc(c(Cl)c3)Oc3cc2cc(c3O[C@@H]2O[C@H](CO)[C@@H](O)[C@H](O)[C@H]2O[C@H]2C[C@](C)(N)[C@H](O)[C@H](C)O2)Oc2ccc(cc2Cl)[C@H]1O` [VANCOMYCIN], the MIC (as a rule, the lowest concentration found to suppress growth) is 0.3 µM (≈ 0.435 µg/mL) in assay [2] and 86 µM (≈ 125 µg/mL) in assay [3].
Regarding `CN[C@H](CC(C)C)C(=O)N[C@H]1C(=O)N[C@@H](CC(N)=O)C(=O)N[C@H]2C(=O)N[C@H]3C(=O)N[C@H](C(=O)N[C@H](C(=O)NCCCOCCOCCOCCCNC(=O)CCc4cn(CCCNC(=O)CC[C@H](NC(=O)c5cc6cc(c5)CN(C(=O)[C@@H](Cc5c[nH]cn5)NC(C)=O)CCCN(C(=O)[C@H](Cc5c[nH]cn5)NC(C)=O)CCCN(C(=O)[C@H](Cc5c[nH]cn5)NC(C)=O)C6)C(N)=O)nn4)c4cc(O)cc(O)c4-c4cc3ccc4O)[C@H](O)c3ccc(c(Cl)c3)Oc3cc2cc(c3O[C@@H]2O[C@H](CO)[C@@H](O)[C@H](O)[C@H]2O[C@H]2C[C@](C)(N)[C@H](O)[C@H](C)O2)Oc2ccc(cc2Cl)[C@H]1O`, the figures for the MIC in assay [1], in assay [2] and in assay [4] were 2.9 µM, 5.8 µM (≈ 16 µg/mL) and 92.8 µM, respectively. In addition, the MIC entry in assay [3] was “inactive”.
As to `C#CCOc1cc(OCC#C)cc(C(=O)NCCOc2cc(OCCNC(=O)c3cc(OCC#C)cc(OCC#C)c3)cc(C(=O)NCCCOCCOCCOCCCNC(=O)[C@H]3NC(=O)[C@H]4NC(=O)[C@H](NC(=O)[C@@H]5NC(=O)[C@H](CC(N)=O)NC(=O)[C@H](NC(=O)[C@@H](CC(C)C)NC)[C@H](O)c6ccc(c(Cl)c6)Oc6cc5cc(c6O[C@@H]5O[C@H](CO)[C@@H](O)[C@H](O)[C@H]5O[C@H]5C[C@](C)(N)[C@H](O)[C@H](C)O5)Oc5ccc(cc5Cl)[C@H]4O)c4ccc(O)c(c4)-c4c(O)cc(O)cc43)c2)c1`, the MIC in assay [2] stood at 1.6 µM (≈ 3.68 µg/mL); in assay [3] it was 3.2 µM (≈ 7.35 µg/mL).
In assay [2], `C#CCCC(=O)NCCCOCCOCCOCCCNC(=O)[C@H]1NC(=O)[C@H]2NC(=O)[C@H](NC(=O)[C@@H]3NC(=O)[C@H](CC(N)=O)NC(=O)[C@H](NC(=O)[C@@H](CC(C)C)NC)[C@H](O)c4ccc(c(Cl)c4)Oc4cc3cc(c4O[C@@H]3O[C@H](CO)[C@@H](O)[C@H](O)[C@H]3O[C@H]3C[C@](C)(N)[C@H](O)[C@H](C)O3)Oc3ccc(cc3Cl)[C@H]2O)c2ccc(O)c(c2)-c2c(O)cc(O)cc21` displayed an MIC of 1 µM (≈ 1.73 µg/mL). In addition, the MIC entry in assay [3] is “inactive”.
Take `COC(=O)c1cc(OCCNC(=O)c2cc(OCc3cn(CCCNC(=O)CC[C@H](NC(=O)c4cc5cc(c4)CN(C(=O)[C@H](Cc4c[nH]cn4)NC(C)=O)CCCN(C(=O)[C@H](Cc4c[nH]cn4)NC(C)=O)CCCN(C(=O)[C@H](Cc4c[nH]cn4)NC(C)=O)C5)C(N)=O)nn3)cc(OCc3cn(CCCNC(=O)CC[C@H](NC(=O)c4cc5cc(c4)CN(C(=O)[C@H](Cc4c[nH]cn4)NC(C)=O)CCCN(C(=O)[C@H](Cc4c[nH]cn4)NC(C)=O)CCCN(C(=O)[C@H](Cc4c[nH]cn4)NC(C)=O)C5)C(N)=O)nn3)c2)cc(OCCNC(=O)c2cc(OCc3cn(CCCNC(=O)CC[C@@H](NC(=O)c4cc5cc(c4)CN(C(=O)[C@H](Cc4c[nH]cn4)NC(C)=O)CCCN(C(=O)[C@@H](Cc4c[nH]cn4)NC(C)=O)CCCN(C(=O)[C@H](Cc4c[nH]cn4)NC(C)=O)C5)C(N)=O)nn3)cc(OCc3cn(CCCNC(=O)CC[C@@H](NC(=O)c4cc5cc(c4)CN(C(=O)[C@H](Cc4c[nH]cn4)NC(C)=O)CCCN(C(=O)[C@@H](Cc4c[nH]cn4)NC(C)=O)CCCN(C(=O)[C@H](Cc4c[nH]cn4)NC(C)=O)C5)C(N)=O)nn3)c2)c1`: the MIC result in assay [1] and in assay [4] was “inactive” each time.
